The target in assay [1] is Epidermal growth factor receptor (Homo sapiens, UniProt P00533). In words: biochemical.
Description: Inhibition of cloned EGFR autophosphorylation expressed in baculovirus-infected Sf9 cells by solid-phase ELISA
In assay [2] the target is T1, Receptor tyrosine-protein kinase erbB-2 (Homo sapiens, UniProt P04626). In words: biochemical.
Description: (§1) Inhibition of human cloned HER2 autophosphorylation expressed in baculovirus-infected Sf9 cells by solid-phase ELISA
The test system of another assay is MCF7. Kind of assay: cells. Particulars: Homo sapiens, MCF7, 48 h.
The target in assay [3] is T1, Receptor tyrosine-protein kinase erbB-2.
Description: as §1

The structures appear in SMILES notation. pIC50: −log10 of the molar value.

Sequence of Epidermal growth factor receptor (P00533 whole entry): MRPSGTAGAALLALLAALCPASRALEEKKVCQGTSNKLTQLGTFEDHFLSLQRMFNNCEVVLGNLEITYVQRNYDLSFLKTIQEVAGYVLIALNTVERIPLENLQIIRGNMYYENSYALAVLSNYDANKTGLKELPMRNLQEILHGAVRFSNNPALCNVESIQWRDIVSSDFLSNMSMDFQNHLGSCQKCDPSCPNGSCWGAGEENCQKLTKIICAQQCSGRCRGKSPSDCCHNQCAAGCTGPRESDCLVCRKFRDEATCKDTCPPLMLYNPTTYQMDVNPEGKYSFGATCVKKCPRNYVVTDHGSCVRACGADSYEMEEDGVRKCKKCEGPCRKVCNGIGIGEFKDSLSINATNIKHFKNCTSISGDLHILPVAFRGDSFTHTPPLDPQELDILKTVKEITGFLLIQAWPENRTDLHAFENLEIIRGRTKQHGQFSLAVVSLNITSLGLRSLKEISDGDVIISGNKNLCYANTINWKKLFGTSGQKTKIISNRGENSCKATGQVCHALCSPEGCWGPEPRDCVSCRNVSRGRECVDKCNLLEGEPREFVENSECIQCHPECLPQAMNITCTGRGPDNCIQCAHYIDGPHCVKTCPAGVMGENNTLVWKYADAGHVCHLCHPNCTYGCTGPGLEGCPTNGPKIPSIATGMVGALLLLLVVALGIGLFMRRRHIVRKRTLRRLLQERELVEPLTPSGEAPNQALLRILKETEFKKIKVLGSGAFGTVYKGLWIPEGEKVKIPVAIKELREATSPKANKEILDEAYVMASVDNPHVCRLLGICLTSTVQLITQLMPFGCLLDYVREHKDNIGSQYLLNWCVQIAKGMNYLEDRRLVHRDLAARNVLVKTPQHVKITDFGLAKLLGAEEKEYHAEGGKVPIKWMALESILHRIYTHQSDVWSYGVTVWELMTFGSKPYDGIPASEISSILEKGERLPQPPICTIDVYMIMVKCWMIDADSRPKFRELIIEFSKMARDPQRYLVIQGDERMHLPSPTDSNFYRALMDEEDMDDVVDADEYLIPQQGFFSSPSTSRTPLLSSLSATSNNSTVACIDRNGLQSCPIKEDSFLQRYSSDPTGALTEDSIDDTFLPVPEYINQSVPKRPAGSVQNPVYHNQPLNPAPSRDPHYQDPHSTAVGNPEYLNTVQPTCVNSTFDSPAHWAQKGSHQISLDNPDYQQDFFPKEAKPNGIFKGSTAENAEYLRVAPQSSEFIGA
T1 sequence (P04626 whole entry): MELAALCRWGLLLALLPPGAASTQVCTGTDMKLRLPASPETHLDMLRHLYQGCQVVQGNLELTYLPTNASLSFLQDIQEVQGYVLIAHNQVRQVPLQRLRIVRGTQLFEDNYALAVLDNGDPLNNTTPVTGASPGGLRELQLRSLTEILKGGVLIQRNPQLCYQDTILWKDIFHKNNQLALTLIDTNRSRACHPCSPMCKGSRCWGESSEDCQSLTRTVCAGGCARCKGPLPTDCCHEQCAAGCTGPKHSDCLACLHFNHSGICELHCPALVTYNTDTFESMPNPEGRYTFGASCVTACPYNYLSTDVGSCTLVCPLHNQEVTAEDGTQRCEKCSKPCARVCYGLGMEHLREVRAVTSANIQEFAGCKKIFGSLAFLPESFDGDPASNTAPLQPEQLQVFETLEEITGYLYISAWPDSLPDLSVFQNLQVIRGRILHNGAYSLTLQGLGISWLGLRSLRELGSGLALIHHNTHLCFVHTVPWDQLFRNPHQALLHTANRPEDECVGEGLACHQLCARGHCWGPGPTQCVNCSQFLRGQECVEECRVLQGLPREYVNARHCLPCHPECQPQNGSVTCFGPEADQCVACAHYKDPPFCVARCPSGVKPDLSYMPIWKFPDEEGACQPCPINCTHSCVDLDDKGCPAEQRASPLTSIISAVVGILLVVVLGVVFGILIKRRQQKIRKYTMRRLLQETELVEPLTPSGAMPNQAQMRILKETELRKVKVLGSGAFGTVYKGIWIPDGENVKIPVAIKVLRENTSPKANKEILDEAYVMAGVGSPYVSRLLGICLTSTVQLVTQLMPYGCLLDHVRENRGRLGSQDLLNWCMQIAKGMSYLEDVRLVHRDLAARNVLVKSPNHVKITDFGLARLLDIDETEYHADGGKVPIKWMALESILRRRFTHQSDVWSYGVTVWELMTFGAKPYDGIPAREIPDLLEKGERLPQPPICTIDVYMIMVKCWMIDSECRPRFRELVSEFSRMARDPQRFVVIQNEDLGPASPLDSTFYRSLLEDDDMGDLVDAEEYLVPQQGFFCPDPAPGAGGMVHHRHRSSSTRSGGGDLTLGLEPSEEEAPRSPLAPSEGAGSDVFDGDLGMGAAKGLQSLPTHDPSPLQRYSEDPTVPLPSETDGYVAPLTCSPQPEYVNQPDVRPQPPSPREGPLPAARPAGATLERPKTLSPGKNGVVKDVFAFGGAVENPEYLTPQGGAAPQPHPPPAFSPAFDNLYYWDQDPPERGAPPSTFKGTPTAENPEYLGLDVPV

In general, pIC50 refers to the negative decadic logarithm of the IC50, by convention in mol/L. High values mean a small IC50, low ones a large IC50. As to `COc1ccc(/C=N/NC2=NC(=O)CS2)cc1`, the pIC50 in assay [1] was 5.24; in assay [2], 5.04; with MCF7, 5.50.
Taken in the same sequence, the figures for `O=C1CSC(N/N=C/c2cccc([N+](=O)[O-])c2)=N1` were 4.57, 4.42 and 4.90.
The like results for `O=C1CSC(N/N=C/c2ccc([N+](=O)[O-])cc2)=N1` were, in that order, 5.17, 5.07 and 5.56.
For `Cc1cccc(/C=N/NC2=NC(=O)CS2)c1`, the pIC50 in assay [1] was 4.63; in assay [2], 4.50; in the assay on MCF7 it was 5.09.
Taken in the same sequence, the figures for `O=C1CSC(NN=C2CCCCCC2)=N1` were 4.44, 4.33 and 4.56.
Taken in the same sequence, the figures for `O=C1CSC(N/N=C/c2ccc(Cl)cc2)=N1` were 5.71, 5.56 and 5.74.
The like results for `O=C1CSC(N/N=C/c2ccc(F)cc2)=N1` were, in that order, 5.66, 5.41 and 5.80.
Regarding `O=C1CSC(NN=C2CCCC2)=N1`, the pIC50 is less than 4.30 in assay [1], less than 4.30 in assay [2] and 4.41 in the assay with MCF7.
For the compound `O=C1CSC(N/N=C/c2cccc(F)c2)=N1`, the pIC50 was 4.87 in assay [1], 4.66 in assay [2] and 5.11 in the assay with MCF7.
On to `O=C1CSC(N/N=C/c2cc(Cl)cc(Cl)c2O)=N1`, for which the pIC50 in assay [1] was 5.84; in assay [2], 5.35; in the assay on MCF7, 5.81.
The like results for `O=C1CSC(N/N=C/c2ccc(O)cc2)=N1` were, in that order, 5.33, 5.16 and 5.78.
Take `O=C1CSC(N/N=C/c2cccc(Br)c2)=N1`: the figures for the pIC50 (in assay [1]; in assay [2]; in the assay with MCF7) were 5.13, 4.99 and 5.62, respectively.
In the case of `O=C1CSC(N/N=C/c2cc(Br)ccc2O)=N1`, the pIC50 in the assay on MCF7 is 7.22; in assay [3], 6.38.
For `O=C1CSC(N/N=C/c2cc(F)ccc2O)=N1`, the pIC50 in assay [1] was 6.01; in assay [2], 5.44; with MCF7, 6.57.
Taken in the same sequence, the figures for `O=C1CSC(NN=C2CCC2)=N1` were less than 4.30, less than 4.30 and 4.33.
The like results for `O=C1CSC(N/N=C/c2cccc(O)c2)=N1` were, in that order, 4.71, 4.56 and 4.93.
In the case of `O=C1CSC(NN=C2CCCCCCC2)=N1`, the pIC50 in assay [2] was 4.51; in the assay with MCF7 it was 4.74.
In the case of `Cc1ccc(/C=N/NC2=NC(=O)CS2)cc1`, the results for the pIC50 (in assay [2]; in the assay on MCF7) were 5.23 and 5.69, respectively.
On to `O=C1CSC(N/N=C/c2cccc(Cl)c2)=N1`, for which the pIC50 in assay [1] was 4.97; in assay [2], 4.84; with MCF7 it was 5.37.
Taken in the same sequence, the figures for `O=C1CSC(N/N=C/c2cc(Cl)ccc2O)=N1` were 6.25, 5.75 and 6.74.
The like results for `COc1cccc(/C=N/NC2=NC(=O)CS2)c1` were, in that order, 4.51, 4.34 and 5.01.
Taken in the same sequence, the figures for `O=C1CSC(NN=C2CCCCC2)=N1` were 4.39, less than 4.30 and 4.49.
For `O=C1CSC(N/N=C/c2cc(Br)cc(Br)c2O)=N1`, the pIC50 in assay [1] was 5.91; in assay [2], 5.43; in the assay with MCF7 it was 6.21.
For `O=C1CSC(N/N=C/c2ccc(Br)cc2)=N1`, the pIC50 was 5.76 in assay [1], 5.61 in assay [2] and 6.01 in the assay on MCF7.

The values are drawn from ChEMBL document CHEMBL1157666, “Design, synthesis and biological evaluation of thiazolidinone derivatives as potential EGFR and HER-2 kinase inhibitors” (Bioorg Med Chem, 2010).
